From article PMC4595804, “A strategy to discover decoy chemokine ligands with an anti-inflammatory activity” (Scientific Reports, 2015)
Values after ≈ are worked out from the molar mass of the structure shown. Where two headings read alike, the source gives them in different places.

Assays:
HUT78 T cells = experiment: WST-1 metabolic activity assay; format: cell-based, human; details: 30 μM, 72 h
Source text: WST-1 metabolic activity assay
The colorimetric WST-1 cell metabolic assay (Ozyme) was used to assess the cytotoxic effect of chemokine neutraligands. This is a cell viability test based on the enzymatic cleavage by the mitochondrial succinate-tetrazolium reductase of a tetrazolium salt, WST-1 (4-[3-(4-Iodophenyl)-2-(4-nitrophenyl)-2H-5-tetrazolio]-1,3 benzene disulfonate), into a water- […]
soluble formazan dye which can be detected by absorbance at 420-480nm. HUT78 T cells (or HaCat cells) were seeded on 24-well plates (200,000 cells per well) and were incubated […]
concentration ≤1% on cells). The background control was reserved as one well containing the culture medium only. The plates were incubated for 72h at 37°C. Three days later, the medium containing the neutraligands was removed, and WST-1 reagent (1:10 final dilution) (Ozyme) was added to each well for a 2h incubation at 37°C as the manufacturer’s recommendation. The plates were shaken and absorbance was measured at 450nm (reference wavelength 690nm) against the background control, using a multiwell plate reader (EnVision, Perkin Elmer). Assays were performed as three independent replicates. […]
(Heidelberg, Germany) and was cultured in Dulbecco’s Modified Eagle Medium (DMEM) (Invitrogen) supplemented with 10% fetal bovine serum (FBS) (Gibco-BRL), 100U/ml penicillin (Invitrogen), 100µg/ml streptomycin (Invitrogen) and 2mM L-glutamine (Invitrogen) at 37°C and 5% CO 2. The cells received fresh medium every other day and were subcultured every 10 days. HaCat cells were seeded in a 24-well plate (ESSEN Bioscience) at a density of 200,000 cells per well, and were allowed to grow until confluence. A scratch wound along the cell monolayer was created using the Essen woundmakerTM. Cells were washed twice with PBS to remove detached cells, and were treated with serum-free culture medium in the absence or presence of 100ng/ml chemokine (CCL22 or CCL17) preincubated with DMSO or […]
The molecules were also tested alone […]
without the chemokine. […] One […]
µg/ml of mitomycin C (Sigma-Aldrich) was added throughout the experiment in order to block cell proliferation. Once treated, the cells were immediately placed into the IncuCyteTM live-cell imaging, and the cell migration onto the wounded area was examined for 72h. Phase-contrast images acquired for each sample were captured every 2h (objective lens x10), and […]

CCL22 = biological target: T1, CCL22 (Homo sapiens, UniProt O00626); experiment: TRIC-r calcium assay, neutraligand protocol: compound preincubated with CCL22, EGFP-CCR4+Gqi5+ HEK cells; format: cell-based; details: for IC50: 5 nM CCL22 preincubated 1 h with compound, 21 °C, read-out: IC50 for CCL22 neutralization (calcium assay); for inhibition at 2 µg/mL: 2 μg/ml compound preincubated 1 h with 5 nM CCL22, read-out: inhibition of CCL22-induced calcium responses (primary screen)
T1 construct: codes for the mature CCL17 or CCL22 with an N-terminal thioredoxin-hexahistidin (TRX- (His)6) tag; thioredoxin (TRX) (N, cleaved yes); (His)6 (N, cleaved yes); made in house; host or cells: E. coli BL21 (DE3)
T1 sequence (O00626 25-93): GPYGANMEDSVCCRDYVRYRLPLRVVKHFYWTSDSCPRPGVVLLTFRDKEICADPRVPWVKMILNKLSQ
Protocol: (§1) EGFP-CCR4^+Gqi5^+HEKcells were loaded with fluorescent Ca^2+-indicator Indo-1 AM (5μM, Interchim) for 45 min at 37 °C. […] Cells (100,000 cells/well, 100μl) were seeded in black clear bottom 96-well plates (Greiner), and centrifuged at 250 × g for 5 min.
(§2) Two plates (96-well plates, Greiner) were prepared for the screen: one containing test compounds alone in order to determine their direct agonistic activity, and another one containing test compounds mixed with CCL17 or CCL22 at room temperature for 1 h (neutraligand protocol). The chemokines and test compounds were prepared at a 3× concentration, while digitonin was prepared at a 4× concentration. The CCR4 antagonist, C-021 served as control in the experiment. In the antagonist protocol, compounds were added to the cell plate (one compound per well) and incubated with cells for 30 min at room temperature, while the agonist (CCL17 or CCL22) was added to the ligand plate only.
(§3) Dye loaded cells were placed in the FlexStation 3 (Molecular Devices). […] For the primary screening, the ligands (50μl of chemokine mixed with DMSO or test compounds) were added to the cells at 40 s, followed by digitonin addition (50μl) at 100 s to the cells. Molecules were screened at a final concentration of 2μg/ml with 5 nM CCL17 or CCL22. […] The calcium response values (height of peak response over baseline) were determined. Hits were selected by comparing the response amplitude at the time of the chemokine addition ± test compound. The Z’ factor[29] was calculated according to the following equation: Z’ = 1-(3SD+ + 3SD−)/|Ave+ − Ave−|, where SD+ and Ave+ are respectively the standard deviation and the mean value of the positive controls (chemokine + DMSO), while SD− and Ave− are respectively the standard deviation and the mean value of the negative controls (HEPES-BSA (0.1%) mixed with DMSO, or cells mixed with C-021). Hit molecules were confirmed by performing concentration-response curves and their half maximal inhibitory concentration (IC50) values were calculated using the Kaleidagraph software.

[1] = Solubility measurements (RP-HPLC); format: physicochemical; details: dissolved at 10 µM, room temperature; for solubility at 1 h: kinetic from dmso stock
Protocol: Standard stock solutions of compounds (10mM) were prepared in DMSO, and the molecules were dissolved at a concentration of 10µM in each of the three buffers. The samples were shaken for 1h at room temperature, and centrifuged at 15,000×g . The compounds concentration in the supernatant solutions was determined using RP-HPLC (Gilson) technique. The measurements were done with a UV detector set at 230nm. The measurements were carried out at room temperature using a C18 column ([…], 50×4.6mm, Phenomenex). The aqueous mobile phase contained 0.05% trifluoroacetic acid (solvent A, Sigma-Aldrich). The organic phase was HPLC grade acetonitrile (Sigma-Aldrich CHROMASOLV) (solvent B). The mobile phase flow rate was 2ml/min, and the following program was applied for the elution: 0–0.1min, 5% B; 0.1–2.6min, 5–95% B; 2.6–3.1min, 95% B; 3.1–3.3min, 95–5% B; and 3.3–6min, 5% B. To establish external calibration curves, increasing concentrations of each compound were prepared from standard stock solutions.
The chromatograms were recorded by injecting 20µl of each standard solution, and the calibration curves were plotted using peak areas. […]

CCL17 = biological target: T2, CCL17 (Homo sapiens, UniProt Q92583); experiment: TRIC-r calcium assay, neutraligand protocol: compound preincubated with CCL17, EGFP-CCR4+Gqi5+ HEK cells; format: cell-based; details: for IC50: 5 nM CCL17 preincubated 1 h with compound, 21 °C, read-out: IC50 for CCL17 neutralization (calcium assay); for inhibition at 2 µg/mL: 2 μg/ml compound preincubated 1 h with 5 nM CCL17, read-out: inhibition of CCL17-induced calcium responses (primary screen)
T2 construct: codes for the mature CCL17 or CCL22 with an N-terminal thioredoxin-hexahistidin (TRX- (His)6) tag; thioredoxin (TRX) (N, cleaved yes); (His)6 (N, cleaved yes); made in house; host or cells: E. coli BL21 (DE3)
T2 sequence (Q92583 24-94): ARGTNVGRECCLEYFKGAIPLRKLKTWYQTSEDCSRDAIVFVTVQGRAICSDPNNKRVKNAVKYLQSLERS
Protocol: as §1, §2, §3

[2] = biological target: T3, EGFP-CCR4 on HEK cells (human) (UniProt P51679)
T3 sequence: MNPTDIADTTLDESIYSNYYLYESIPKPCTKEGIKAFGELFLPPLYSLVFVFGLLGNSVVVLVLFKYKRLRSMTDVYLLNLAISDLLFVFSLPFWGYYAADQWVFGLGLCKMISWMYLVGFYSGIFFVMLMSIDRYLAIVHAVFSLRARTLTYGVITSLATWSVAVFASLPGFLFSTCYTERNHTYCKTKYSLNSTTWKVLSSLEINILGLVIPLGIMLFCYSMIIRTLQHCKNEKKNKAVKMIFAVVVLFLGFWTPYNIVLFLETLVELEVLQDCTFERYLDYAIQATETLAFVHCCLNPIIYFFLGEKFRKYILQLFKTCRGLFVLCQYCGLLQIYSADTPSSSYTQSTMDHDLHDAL

[3] = HEPES buffer, aqueous buffer, read-out: solubility in HEPES buffer
[4] = complete cell culture medium, plasma or biological fluid, read-out: solubility in the cell culture medium
[5] = HEK293, compound 5 µM, read-out: Inhibition of CCL22 calcium responses (%)
[6] = HEK293, compound 5 µM, read-out: Inhibition of CCL17 calcium responses (%)

CN1C(=O)N(C)C2=NNC=NC2(O)C1=O (centres unmarked) [GPN355, 4a-hydroxy-6,8-dimethyl-6,8-dihydropyrimido[5,4-e][1,2, 4]triazine-5,7(2H, 4aH)-dione]
inhibition of HUT78 cell metabolic activity (HUT78 T cells): 23.1%
IC50 (CCL22): 200 nM
inhibition at 2 µg/mL (CCL22; HEK293): 100%
solubility at 1 h [1, 3]: > 10 µM
solubility at 1 h [1, 4]: > 10 µM
IC50 (CCL17): 9600 ± 900 nM
inhibition at 2 µg/mL (CCL17; HEK293): 42%

COc1cc(C2=N/C(=C\c3ccccc3)C(=O)O2)cc(OC)c1OC [GPN251, (Z)-4-benzylidene-2-(3,4,5-trimethoxyphenyl)oxazol-5(4H)-one]
solubility at 1 h [1, 3]: 0.7 µM (≈ 0.238 µg/mL)
solubility in the cell culture medium ([1]; 1 h): not detected as a free molecule
IC50 (CCL17): 900 ± 100 nM
inhibition at 2 µg/mL (CCL17; HEK293): 53%

O=C(O)c1ccccc1O [GPN0001207]
Inhibition of CCL22 calcium responses (%) (CCL22; compound 5 µM, 5 µM): 0.0%
Inhibition of CCL22 calcium responses (%) (CCL22; compound 5 µM, listed as GPN001207, 5 µM): no inhibitory effect
Inhibition of CCL17 calcium responses (%) (CCL17; compound 5 µM): 0.0%

CC(C)Cn1c(=O)n(C)c(=O)c2[nH]cnc21 [IBMX, 3-isobutyl-1-methyl xanthine, reference compound]
inhibition at 5 µM (CCL22; [5]): 0%
inhibition at 5 µM (CCL17; [6]): 0%
Inhibition of CCL17 calcium responses (%) (CCL17; compound 5 µM): no effect

recombinant human CCL17 (from UniProt Q92583 24-94) (ligand)
EC50 of calcium responses in EGFP-CCR4+ Gqi5+ HEK cells at 21 °C [2]: 3.7 nM

Cn1c(=O)c2[nH]cnc2n(C)c1=O [Theophylline, reference compound]
inhibition at 5 µM (CCL22; HEK293, read-out: Inhibition of CCL22 calcium responses (%)): 0%
inhibition at 5 µM (CCL17; HEK293, read-out: Inhibition of CCL17 calcium responses (%)): 0%
Inhibition of CCL17 calcium responses (%) (CCL17; compound 5 µM): no effect

COc1ccc([C@@H](C)C(=O)c2ccc(O)cc2O)cc1 [GPN025, (R)-1-(2,4-dihydroxyphenyl)-2-(4-methoxyphenyl)propan-1-one]
inhibition of HUT78 cell metabolic activity (HUT78 T cells): 81.3%
IC50 (CCL22): 10600 ± 3700 nM
inhibition at 2 µg/mL (CCL22; HEK293): 44%
solubility at 1 h [1, 3]: > 10 µM
solubility at 1 h [1, 4]: > 10 µM

CC(=O)Oc1ccccc1C(=O)O [aspirin, Acetylsalicylic acid, reference compound]
inhibition at 5 µM (CCL22; [5]): 0%
inhibition at 5 µM (CCL17; [6]): 0%

Cn1c(=O)c2c(ncn2C)n(C)c1=O [Caffeine, reference compound]
inhibition at 5 µM (CCL22; [5]): 0%
inhibition at 5 µM (CCL17; [6]): 0%
Inhibition of CCL17 calcium responses (%) (CCL17; compound 5 µM): no effect

B1: recombinant human CCL22 (ligand)
chain: GPYGANMEDSVCCRDYVRYRLPLRVVKHFYWTSDSCPRPGVVLLTFRDKEICADPRVPWVKMILNKLSQ
EC50 of calcium responses in EGFP-CCR4+ Gqi5+ HEK cells at 21 °C [2]: 2.9 nM
